Data published in patent US20210253635A1, “PEPTIDIC PROTEIN KINASE C INHIBITORS AND USES THEREOF” (UNIVERSITE DE GENEVE, priority 2018, published 2021).
Ends that are not written are not given here. * marks the point of attachment. Myristoyl = CCCCCCCCCCCCCC(=O)*

Assays:
[1] = test system: nasal epithelial monolayers (Mucilair human primary nasal epithelial cells); test: FITC insulin permeabilization (apical to basolateral) across epithelial monolayer; assay type: cell-based; settings: peptide 50 μM, apical side, compared to control (vehicle), FIG. 2
Description: To assess the potential effects of peptides of the invention on the permeabilization of therapeutic molecules, FITC Insulin (Sigma-Aldrich, Buchs SG, Switzerland) is used as a model for assessing paracellular drug transport (apical to basolateral) across the epithelial monolayer.
Mucilair™ human primary nasal and bronchial epithelial cells (Epithelix sarl, Geneva, Switzerland) and Caco-2 human intestinal epithelial cells are used (Huang et. al., 2013, Toxicol. in Vitro 27: 1151-1156).
Before each experiment, the culture medium is removed from each compartment and the monolayer is washed once with 200 μl of saline (0.9%) and once with warm Hanks' Balanced Salt Solution (HBSS) (37° C.). In the basolateral compartment, 600 μL of pre-warmed HBSS is placed and the cells are returned to the incubator at 37° C. for 30 minutes to equilibrate. After equilibration, the peptides of the invention and the paracellular marker (FITC insulin) are applied to the apical side of an epithelial monolayer. Peptides P4 (SEQ ID NO: 2) and P3 (SEQ ID NO: 4) according to the invention are tested in comparison with a comparative peptide CP4 (SEQ ID NO: 3).
All peptides are used at a final concentration of 50 μM. The vehicle is used as a control (CTRL). The FD solution is added to the apical compartment to make a final volume of 200 μl. […] The fluorescence of FD is measured in black 96-well plates using a fluorescence plate reader (BioTek Synergy Mx plate reader, BioTek Instruments GmbH, Lucerne, Switzerland), using excitation and emission wavelengths of 485 and 520 nm, respectively. Cumulative release (ng) corresponds to the actual amount of drug released cumulatively and corresponds to the amount in the suspension medium at any time plus the amount of the drug lost during each sampling.

[2] = test system: Mucilair human primary nasal epithelial cells; test: Trans-epithelial electrical resistance (TEER), epithelial integrity; assay type: cell-based; settings: peptide 100 μM, apical, FIG. 1
Method: Trans-epithelial electrical resistance (TEER): After addition of 200 μl of culture medium to the apical compartment of the tissue cultures, resistance is measured across cultures with an EVOMX volt-ohm-meter (World Precision Instruments UK, Stevenage) in triplicate for each time point. The TEER values (Ω) is converted normalized by using the following formula: TEER (Ω cm^2)=(resistance value (Ω)−100 (Ω))×0.33 (cm^2), where 100Ω is the resistance of the membrane and 0.33 cm^2 is the total surface of the epithelium.
To assess the potential effects of peptides of the invention on the epithelial integrity, transepithelial electrical resistance in the presence of a peptide of the invention is measured. Trans-epithelial electrical resistance (TEER) was measured as in Example 2 except that volt-ohm-meter was equipped with STX-2 chopstick electrodes (WPI, Sarasota, Fla., USA). Mucilair™ human primary nasal epithelial cells were used as in Example 2 (from single donor; EP01-Batch number MD069201). The peptide P4 (SEQ ID NO: 2) and comparative peptide […] both at a concentration of 100 μM in Mucilair™ medium and control solution (i.e., 50 μl of saline+50 μl of Mucilair™ medium) were administered to the apical compartment of the tissue cultures at the begging of the experiment (t=0) and the measurements were made after 20, 40, 60 and 80 minutes (t=20 min, t=40 min, t=60 min and t=80 min) of the incubation. All TEER values are expressed as percentage relative to control (the baseline value was 242 Ω*cm^2). All the experiments were performed at least 2 times (test 1 and 2).

[3] = test system: non-small cell lung cancer (NSCLC); settings: NSCLC patients, compared to chemotherapies, before resistance appears; cited from earlier work

Compound	permeabilization of FITC-conjugated insulin (cumulative release) [1]	TEER values (percentage relative to control) ([2]; t=20 min)	TEER values (percentage relative to control) ([2]; t=40 min and t=60 min)	TEER values (percentage relative to control) ([2]; t=80 min)	progression free survival (PFS) [3]
Myr-D-Ala D-Arg D-Arg D-Trp D-Arg [Peptide P3]	increased the permeabilization of insulin FITC to a much larger extend than the control peptide CP4	–	–	–	–
Myr-D-Ala D-Lys D-Arg D-Trp D-Arg [Peptide P4]	increased the permeabilization of insulin FITC to a much larger extend than the control peptide CP4	decreased TEER values as compared to control solution and comparative peptide P4 (CP4)	this effect persisted	TEER values increased as compared to values measured at previous time points	–
COc1cc2ncnc(Nc3ccc(F)c(Cl)c3)c2cc1OCCCN1CCOCC1 [Gefitinib, N-(3-Chloro-4-fluorophenyl)-7-methoxy-6-(3-morpholinopropoxy) quinazolin-4-amine]	–	–	–	–	7.7-12.9 months
Myr-AKRWR (Myristoyl-AKRWR) [CP4, comparative peptide, L-amino acid version of P4, reference compound]	slightly increased the permeabilization	–	–	–	–
